Source: publication PMC4077824, “Conserved Prosegment Residues Stabilize a Late-Stage Folding Transition State of Pepsin Independently of Ground States” (PLoS ONE, 2014)
“And” between values parts separate entries of the source, which are not always exact repeats. Equal entries are not always repeated. Where no end group is shown, it is not given here.

Key:
[1] = system: pepsin (PS-Rp, PS-TS, PS-Np complexes); assay: Φ-value analysis from PS-catalyzed folding and binding constants; design: species or system porcine; details: for Φ: ratio ΔΔG^‡/ΔΔGPS(Np-Rp); for Φ / ΔΔGPS(Np-Rp) (change in equilibrium stability of PS-Np relative to PS-Rp): ± SD by propagation of errors; for ΔΔGPS(Np-Rp) (change in equilibrium stability of PS-Np relative to PS-Rp): ΔΔGPS-Np minus ΔΔGPS-Rp; for effect on PS-TS stability (in words): ΔΔGPS-TS = ΔΔG^‡ + ΔΔGPS-Rp
Protocol: Calculation of Φ-values from PS-catalyzed folding and binding constants
The change in stability of the folding transition state upon mutation was calculated using [drawing 3] (3) where k f, wt and k f, mut are the PS-catalyzed folding rate constants of the wild-type and mutant PS peptides. The change in equilibrium stability of PS-Np relative to PS-Rp upon mutation of the PS (ΔΔGPS(Np-Rp)) was determined as the difference between the changes in binding energies, using [drawing 4] (4) and [drawing 5] (5)
Here, ΔΔGbind refers to either ΔΔGPS-Rp, determined from K d values, or ΔΔGPS-Np, determined from K i values. The Φ-value for each mutant corresponds to eq 3 divided by eq 5. Additional details are included in the supporting information section (Text S1).
As outlined below, ∆Gbind values are used to calculate ∆∆GPS(Np-Rp), which is the change in the equilibrium free energy difference between PS-Np and PS-Rp upon mutation of the PS (for a diagram of the folding reaction, see Fig S1)
ΔΔGbind can refer to either ∆∆G^PS-Np(wt-mut) or ∆∆G^PS-Rp(wt-mut). Also, we can write ∆Gbind in terms of its components
where ∆GPS, ∆Gpepsin and ∆Gsolvent refer to the change in free energy of the PS, pepsin and the solvent upon PS binding to pepsin, respectively. Combining equations S1 and S2 gives
The contribution of each component to ∆∆Gbind will depend on the particular mutation (e.g., nature of substitution, location within folded structure, solvent accessibility). This is the general case for protein engineering analysis, in which the effects of mutations on changes in equilibrium and activation energies are the result of many individual interaction energy terms, including solvent terms, as previously explained in detail [Fersht AR, Matouschek A, Serrano L (1992) The folding of an enzyme I. Theory of protein engineering analysis of stability and pathway of protein folding. J Mol Biol 224: 771‒782]. Most importantly, there is no requirement to separate ΔΔGbind into its components in order to proceed with analysis as we are interested in the overall change in equilibrium stability of the PS-pepsin complex (∆∆GPS(Np-Rp))
This bimolecular approach to Φ-value analysis of protein folding is qualitatively identical to Φ-value analysis as it was originally applied to the study of enzyme catalysis. As outlined previously [Fersht AR], changes in the free energy of enzyme (E) binding to substrate (S) or product (P) are used to determine the change in free energy difference between E-P and E-S upon mutation, ∆∆G^EP-ES(wt-mut), where
As these are at the scale of global energy terms, equations S4 and S5 are equivalent and PS-catalyzed folding can be treated similarly as enzyme catalysis, in which the PS is the foldase and the denatured and natively folded protein are the substrate and product, respectively. However, protein folding reactions are more complicated to interpret at the level of individual interaction energy terms, which are more numerous [Fersht AR].
Changes in the binding energies between PS-Rp and PS-Np upon PS mutation can then be used to determine Φ-values with the following considerations:
1. Free PS is unstructured (see Fig S6), so Ala mutations are expected to have a negligible effect on the stability and conformation of free PS.
2. Changes in binding and folding upon mutation can be localized to the loss of interactions in the immediate vicinity of the truncation mutation (i.e., larger residue mutated to Ala), and not due to gross conformational changes of the PS or changes in the binding/folding mechanism (consider as strong evidence that all of the mutant PS’s readily catalyze folding to the native, active form).
3. Changes in PS-Rp and PS-Np binding energies upon mutation (∆∆G^PS-Np(wt-mut) and ∆∆G^PS-Rp(wt-mut)) are measured directly, while the change in the PS-TS binding energy (∆∆G^PS-TS(wt-mut)) is the sum of ∆∆G^PS-Rp(wt-mut) and ∆∆G^‡(wt-mut).
4. Φ-values are calculated using […]

[2] = molecular target: T1, refolded pepsin (Rp) (Sus scrofa, UniProt P00791); assay: PS-catalyzed folding of Rp to Np (recovery of Np activity); type: biochemical, porcine; details: PS with Rp, without 100 mM NaCl, timescale of 0–2 hours; data not shown, and [7]
T1 construct: Only the R13 and K36 side-chains of the PS form hydrogen bonds with the mature pepsin domain; purchased Sigma (St. Louis, MO, USA)
T1 sequence (P00791 60-385): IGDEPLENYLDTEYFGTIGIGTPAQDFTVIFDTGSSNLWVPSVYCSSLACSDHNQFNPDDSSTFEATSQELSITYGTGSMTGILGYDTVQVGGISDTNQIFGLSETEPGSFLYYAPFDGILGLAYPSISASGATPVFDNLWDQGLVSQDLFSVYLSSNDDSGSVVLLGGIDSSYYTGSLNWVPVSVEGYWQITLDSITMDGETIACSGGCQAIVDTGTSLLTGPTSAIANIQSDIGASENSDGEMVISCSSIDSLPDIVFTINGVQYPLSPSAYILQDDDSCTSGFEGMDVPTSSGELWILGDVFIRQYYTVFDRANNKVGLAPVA

[3] = molecular target: T2, native pepsin (Np) (Sus scrofa, UniProt P00791); details: ref [7]; cited from earlier work
T2 construct: Only the R13 and K36 side-chains of the PS form hydrogen bonds with the mature pepsin domain; purchased Sigma (St. Louis, MO, USA)
T2 sequence (P00791 60-385): as above
From the text: (§1) Figure 1 Zymogen-derived proteins deviate from common trends in protein folding. (A) Comparison of the non- and PS-catalyzed folding of αLP [8], SGPB [5] and pepsin [7]. (B) Relation between topology and folding rate for a number of two- and three-state folding proteins (circles, data taken from, [21], [22]). The folding rate of αLP (squares), SGPB (triangles) and pepsin (stars) is accelerated to the value (hollow points) expected based on the topology, only when the PS is included. (C) Reaction scheme of pepsin PS-catalyzed folding. […] It seems likely that the PS has achieved this higher affinity for the TS via a concerted optimization of side-chain packing, hydrogen bonding and electrostatics, as evidenced by polar, hydrophobic and charged groups selectively stabilizing the TS ( Fig 3A ). Furthermore, this concerted optimization likely involves both non-native and strengthened native contacts, given the range of interactions involved. In the native fold [ ...

[4] = molecular target: T1, refolded pepsin (Rp); details: ref [7]; cited from earlier work
From the text: as §1

[5] = system: refolded pepsin (Rp); details: 1H-15N TROSY NMR, absence of 100 mM NaCl; ref [51]; cited from earlier work
Protocol: Coarse-grain simulations have been used to understand the nature of non-native interactions in small, single-domain proteins lacking stable folding intermediates, [48], [49]. […] It would be challenging, but not impossible, to use similar coarse-grain approaches to model the folding of pepsinogen (370 residues). Using simulation to gain insigh ... || PS binding to Rp was measured in buffer without added 100 mM NaCl in order to obtain more accurate measurements of K d, owing to a larger change in signal in the absence of salt. Additionally, without added 100 mM NaCl it was possible to isolate the PS-Rp binding step from the catalyzed folding step thereby improving the determination of K d. […] However, ^1H-^15N TROSY NMR experiments indicated tha ...

Row | Sequence | Φ [1] | ΔΔGPS(Np-Rp) (change in equilibrium stability of PS-Np relative to PS-Rp) [1] | effect on PS-TS stability (in words) [1] | generation of protease activity without added NaCl [2] | affinity for Np [3] | affinity for Rp [4] | folding of PS-Rp to native complex without 100 mM NaCl [5]
1 | LVKAPLVRKKSLRQNLIKNGKLKDFLKTHKHNPASKYFPEAAAL [V4A] | −1.0±0.3 | -0.93 ± 0.18 kcal/mol | destabilizing to the TS |  |  |  | 
2 | LVKVPLVRKKSLRQNLAKNGKLKDFLKTHKHNPASKYFPEAAAL [I17A] | 0 and 0.0±0.1 | 1.26 ± 0.28 kcal/mol | negligible effect on PS-Rp and PS-TS stability |  |  |  | 
3 | LVKVPLVRKKSLRQNLIKNGKLKDFLKTHKHNPASKYFPEAAAL [WT] |  |  |  | no generation of protease activity was observed | nano- | micromolar | does fold to the native complex
